Laboratory results as given in US12298308B2, “Neoadjuvant chemotherapy induces breast cancer metastasis through a TMEM-mediated mechanism” (Albert Einstein College of Medicine, priority 2017, dated 2025).

Legend:
TMEM [1] = experiment: TMEM score by triple-stain immunohistochemistry in mouse breast tumors; type: in vivo
From the text: This hypothesis was investigated in the following breast carcinoma models: (i) transgenic MMTV-PyMT mice bearing spontaneous breast tumors, (ii) FVB mice transplanted orthotopically with tumors from MMTV-PyMT donors, and (iii) two patient-derived xenografts (PDX), HT17 and HT33, developed previously in our laboratory (31). […] Treatment of all groups began at the early carcinoma stage (tumor size of ˜0.3 cm) when there is minimal or absent necrosis. It was decided to work with the early-stage PyMT mouse mammary carcinoma model because it more accurately reflects clinically relevant scenarios where most women present with small tumors of <2 cm (32).
(§1) Drug Administration. The following drugs were administered in mice: Paclitaxel was given at 10 mg/Kg i.v every 5 days for 2 weeks; Doxorubicin was given at 5 mg/Kg i.v. every 5 days for 2 weeks; Cyclophosphamide was given at 120 mg/Kg i.p. only once; Rebastinib was given at 10 mg/Kg per os, every 3-4 days for 4 weeks.
(§2) Animals and Animal Procedures. MMTV-PyMT mice were bred in-house at the Albert Einstein College of Medicine (AECOM). Generation of MMTV-PyMT Mena^−/− has been described previously (28). CFP- or Dendra2-labeled mammary carcinoma cells were generated on the FVB background by co-injection of Tg(MMTV-iCRE)1jwp together with Tg(PCAG-loxp-CATstop-loxp-CFP) or Tg(loxP-stop-loxP-PDendra2)jwp plasmids, respectively, by conventional methods in the Albert Einstein Transgenic Mouse Facility. All syngeneic transplantation models were generated through orthotopic transplantation of 1 mm×1 mm tumor chunks, using tumors of 1 cm-diameter from 12-16-week old MMTV-PyMT mena−/− or mena+/+ donor mice into 5-6 week-old FVB recipients. Tumor chunks were implanted on the fourth mammary pad on the left side. The generation of the ER^− HT17 and ER^+ HT33 patient-derived xenografts has been described previously (31). Animal handling and associated procedures were approved by the Institutional Animal Care and Use Committee (IACUC). Additional information is detailed in Supplementary Methods.
Histology and TMEM Immunohistochemistry. Breast tumors and lungs were isolated, rinsed in PBS, fixed in 10% neutral buffered formalin for 48 hours, dehydrated and embedded in paraffin. Sections (5 μm) were stained with H & E or TMEM triple-stain immunohistochemistry, as previously described (3).

[2] = tested on: Tie2^hi/Vegf^hi macrophages; experiment: Macrophage infiltration by multi-channel immunofluorescence (Iba1, Cd31, Tie2, Vegf); type: in vivo, mouse
From the text: The functional TMEM sites contain Tie2^hi/Vegf^hi macrophages and invasive tumor cells in perivascular regions (1), and it was independently shown that chemotherapy may promote mobilization of such Tie2^hi monocyte progenitors in primary tumors (8, 10). The Tie2^hi/Vegf^hi macrophage subpopulation was quantified herein using multi-channel immunofluorescence (IF) imaging (FIGS. 1D-F) (10, 14, 34). FIG. 1E illustrates a representative IF image of a Tie2^hi/Vegf^hi macrophage quantified using Cd31, Iba1, Vegf and Tie2 staining.
as §1, §2
Immunofluorescence. Slides were deparaffinized by melting at 60° C. in an oven equipped with a fan for 20 minutes, followed by 2× xylene treatment for 20 minutes. Slides were rehydrated and antigen retrieval was done in 1 mM EDTA (pH 8.0) or 1× citrate buffer (pH 6.0) (Diagnostic BioSystems) at 97° C. for 20 minutes in a conventional steamer. Endogenous peroxidase was blocked by using 0.3% hydrogen peroxide in water, followed by incubation of slides in a blocking buffer solution (10% FBS, 1% BSA, 0.0025% fish skin gelatin in 0.05% PBST) for 60 minutes at room temperature. The following primary antibodies were used in different combinations, depending on the experiment: chicken anti-Mena^INV (0.25 ug/mL, generated in-house in the lab of John S. Condeelis), rabbit anti-Cd31 (1:400; 77699s; Cell Signaling), rabbit anti-Vegf (1:2,000; Rb 9031-PO-A; Thermo), rat anti-Tie2 (1:100; 16-5987-82; eBioscience), rabbit anti-Iba1 (1:6,000; 019-19741; Wako), rat anti-endomucin (1:500; sc-65495; Santa Cruz), rabbit anti-TMR (1:1,000; A-6397; Life Technologies). Secondary antibody treatment was performed using HRP-conjugated antibodies, and was followed by tyramide signal amplification (TSA), using the Perkin Elmer; Opal™ 4-color Fluorescent IHC kit, according to the manufacturer's directions. All slides were imaged on the Pannoramic 250 Flash II digital whole slide scanner, using a 20×0.75NA objective lens. Image analysis was performed in ImageJ, detailed in Supplementary Methods.

TMEM [3] = experiment: Intravital imaging of TMEM-dependent vascular permeability (bursting); type: in vivo, mouse; conditions: co-administration of rebastinib in paclitaxel-treated mice; intravital imaging
From the text: Paclitaxel Induces TMEM-Dependent Vascular Permeability in Breast Tumors—Given that chemotherapy treatment may affect blood vessel dynamics by inducing angiogenesis (9, 11-13, 35-37), intravital imaging (IVI) (FIG. 2A) was used to investigate whether neoadjuvant paclitaxel induces TMEM-dependent (localized) or TMEM-independent (more universal) blood vessel leakage. […] As also reported previously (1), we never observed any bursting incidents without juxtaposition to a clearly defined TMEM site. Bursting was documented by the accumulation of Dextran-TMR signal over time around an active TMEM site, and no such accumulation was observed away from TMEM (FIGS. 2B-C). The entire time-lapse of these was recorded in videos, respectively. The intensity values from all TMEM-mediated bursting incidents observed in paclitaxel-treated mice were averaged and plotted over the entire time of bursting activity (FIG. 2D), which confirmed the transient nature of paclitaxel-induced TMEM-dependent vascular permeability.
as §1
Intravital Imaging. Intravital imaging was performed using a custom-built two-laser multiphoton microscope, as previously described (57). Mice were anesthetized using 0.75-2.5% isofluorane, depilated. A skin flap procedure, previously developed (58), was performed by exposing the 4th or 5th mammary fat pad. Given the early stage of carcinoma and small tumor size, this necessitated the development of a custom fixturing technique where the exposed tissue was stabilized by affixing the edge of a 10-mm window fitted with an 8-mm clear aperture respectively with cyanoacrylate. The mouse was then placed on a fixturing plate, fitted to the respective window, on the microscope xy stage and imaging was performed in the center of the window away from the glue. The animal was placed in a heated chamber, AirTherm ATX forced air heater (WPI Inc.), maintained at physiologic temperature during the course of imaging, and supplemented with 50-100 uL of PBS per hour via the tail vein catheter. As previously described (1), three milligrams of 155-kDa TMR-dextran (Sigma) were administered via the catheter to visualize the vasculature. All images were reconstructed and analyzed in ImageJ (59), as described in Supplementary Methods.

circulating tumor cells = experiment: Circulating tumor cells per mL of blood; type: in vivo, mouse; conditions: PyMT-transplantation and HT17 xenograft
Description: as §1
Circulating Tumor Cells. Mice were anesthetized with 3.5-4.5% isoflurane, and blood was taken from the right ventricle by heart puncture, using 25G needles coated with heparin. Erythrocytes were lysed, using 10 ml of 1×RBC lysis buffer (multi-species, eBioscience). Cancer cells were quantified, as previously described (31, 60).

[4] = rebastinib in paclitaxel-treated animals
[5] = single agent vs vehicle, PyMT-transplantation and HT17 xenograft

SMILES: CNC(=O)c1cc(Oc2ccc(NC(=O)Nc3cc(C(C)(C)C)nn3-c3ccc4ncccc4c3)c(F)c2)ccn1 [rebastinib, 4-[4-[(5-tert-butyl-2-quinolin-6-ylpyrazol-3-yl)carbamoylamino]-3-fluorophenoxy]-N-methylpyridine-2-carboxamide]
- TMEM assembly (TMEM [1]; [4]): without affecting
- overall TMEM score (TMEM assembly) (TMEM [1]; [5]): did not significantly affect
- number of perivascular Tie2^hi/Vegf^hi macrophages [2, 4]: decreased
- density of perivascular Tie2^hi/Vegf^hi macrophages [2, 5]: did not significantly affect
- frequency of bursting (TMEM [3]): completely abolished
- incidence of bursting (TMEM [3]): completely abolished
- circulating tumor cells (circulating tumor cells; [4]): decreased circulating tumor cells to the level observed in the control animals
- number of CTCs (TMEM activity) (circulating tumor cells; single agent vs vehicle): reduced
